Laboratory results: US11730712B2, “Functionalized long-chain hydrocarbon mono- and di-carboxylic acids and derivatives thereof, and their use for the prevention or treatment of disease” (ESPERVITA THERAPEUTICS, INC., priority 2021, dated 2023)
“And” between values parts separate entries of the source, which are not always exact repeats. Identical values can stand only once.

System: DEN-injected mice on high fat high fructose diet
Assay: NASH-HCC model by diethylnitrosamine (DEN) induction: tumors, ALT/AST, liver histology
Format: in vivo, mouse
Design: key to Fibrosis Score, individual mice: 1a: Mild (delicate) zone 3 perisinusoidal fibrosis, requires Masson's trichome stain to identify; 1b: Moderate(dense) zone 3 perisinusoidal fibrosis; 1c: Portal fibrosis only; NAFLD Activity Score, individual mice / NAFLD Activity Score, Avg: scale not given here
Conditions: 4 weeks; for Fibrosis Score, individual mice / NAFLD Activity Score, individual mice / No. of Surface Tumors, individual mice / NAFLD Activity Score, Avg / No. of Surface Tumors, Avg: 100 mg/kg daily oral gavage; for No. of Surface Tumors, individual mice: mice analyzed by Nanostring; for NAFLD Activity Score, Avg / No. of Surface Tumors, Avg: n=8; for liver fibrosis (trichrome stained livers): 100 mg/kg; for NAFLD activity scores (NAS) / liver inflammation scores / liver steatosis and ballooning scores: 30 and 100 mg/kg; for plasma ALT and AST levels: 30 or 100 mg/kg, dose-dependent
Experimental: Materials and Methods. All experiments were carried out using the guidelines approved by the Animal Research Ethics Board at McMaster University, Canada. Male mice obtained from Steinberg Lab Breeding Colony housed within the McMaster University Central Animal Facility were used for these experiments. The test agents were prepared by solubilizing them in a solution of sodium bicarbonate. Compound I-32 and Compound I-1 were administered at a dose of 30 or 100 mg/kg with a dosing volume of 10 ml/kg by daily oral gavage for 4 weeks. This route was selected because it simulates the oral administration route intended for use in human clinical studies and ensures the correct dose of compound is ingested by each animal. Data are expressed as means±the standard error of the mean. Statistical comparisons were carried out using a one-way analysis of variance followed by Dunnett's post hoc test using GraphPad Prism 8 software. A p-value of less than or equal to 0.05 will be used as the criterion of significance.
Experimental Protocol. At 2 weeks of age mice were injected with diethylnitrosamine (DEN) at 25 mg/kg body weight. After weaning mice were housed with littermates and fed a normal chow diet (Teklad 8640 22/5). […] After 7.5 months, mice were bled from the tail vein and plasma alpha-fetoprotein (AFP) levels were determined. AFP is a serum biomarker of HCC progression in humans and mice treated with DEN. At 8 months, mice were divided into 5 groups, based on mean AFP levels and then received a single daily dose of either vehicle (1.5% CMC and 0.2% Tween-20) or 30 mg/kg or 100 mg/kg of Compound I-32 or Compound I-1 via gavage. Throughout the experiments mice were housed in ventilated cage racks with ad libitum access to the food and water. An automatic timing device was used to maintain an alternating 12-hour cycle of light and dark.
After 4 weeks of daily treatments mice were anesthetized by I.P. injection of Ketamine/Xylazine (150 mg/12.4 mg/kg, respectively) in saline. When anesthetic plane has been achieved, 0.5 ml of blood was drawn by cardiac puncture, and plasma was isolated and frozen in liquid nitrogen. The liver was excised intact and rinsed briefly in PBS on ice. The liver was weighed, a photo was taken and the number of visible lesions on the surface of the liver was counted and recorded. A portion of tumor-free liver (˜200 mg, caudate lobe) and up to three individual tumors were removed, flash frozen in liquid nitrogen and stored for molecular analysis. The remainder of the liver was placed in 10% formalin, fixed for 48 hours, and stored in 70% ethanol until it was embedded in paraffin, sectioned, and mounted on slides for histological analysis.
AFP assay. Before starting the treatment, mice were bled from the tail vein and plasma alpha-fetoprotein (AFP) levels were determined using mouse alpha-Feto protein/AFP Duoset ELISA kit (R&D Systems, Inc., MN, USA) as recommended by the manufacturer. 100 μl sample (1:1000 in reagent diluent) was added on each well of 96-well plate coated with mouse AFP capture antibody. Next, the plates were washed with wash buffer and 100 μl detection antibody was added to each well, followed by the Streptavidin HRP and substrate solution. The reaction was stopped by stop solution and the optical density of each well was measured in a microplate reader set to 450 nm. After measuring AFP levels, mice were divided into five groups (>800 ng/ml) and treatment was initiated.
ALT/AST assay. Plasma Alanine Transaminase (ALT) and Aspartate Transaminase (AST) levels were determined using ALT (CAK1002, Cohesion Biosciences) and AST (CAK 1004, Cohesion Biosciences) activity kits following the manufacturer instructions. 10 μl of plasma sample was added with 50 μl of substrate in 96-well plate. The reaction was carried out for 30 minutes at 37° C., detected by dye reagent I and II and absorbance was measured at 520 nm. […]

Compound | reduction of the number of surface tumors (30 mg/kg and 100 mg/kg daily oral) | Fibrosis Score, individual mice | NAFLD Activity Score, individual mice | No. of Surface Tumors, individual mice | NAFLD Activity Score, Avg | No. of Surface Tumors, Avg | liver fibrosis (trichrome stained livers) | NAFLD activity scores (NAS) | liver inflammation scores | liver steatosis and ballooning scores | plasma ALT and AST levels
CC(C)(CCCCc1ccc(CCCCC(C)(C)C(=O)O)cc1)C(=O)O [Compound I-1, 6-[4-(5-carboxy-5-methylhexyl)-phenyl]-2,2-dimethylhexanoic acid] | over 70% | 1a (3×) and 1b (3×) and 1c (2×) | 4 (4×) and 6 (2×) and 3 and 2 | 8 and 6 (2×) and 11 and 10 and 14 and 7 and 3 | 4.1 | 8.1 | fibrosis was significantly reduced | reduced NAFLD activity scores (NAS) at both 30 and 100 mg/kg | without altering inflammation scores | dramatically reduced steatosis | significantly decreased
CC(C)(CCCCc1cccc(CCCCC(C)(C)C(=O)O)c1)C(=O)O [Compound I-32, 6-[3-(5-carboxy-5-methylhexyl)-phenyl]-2,2-dimethylhexanoic acid] | – | 1b (4×) and 1c and 1a (3×) | 2 and 5 and 4 (3×) and 6 and 3 and 1 | 7 and 6 and 3 (2×) and 1 and 30 and 4 and 2 | 3.625 | 7 | fibrosis was significantly reduced | reduced NAFLD activity scores (NAS) at both 30 and 100 mg/kg | without altering inflammation scores | dramatically reduced steatosis | significantly decreased
